How the values were obtained:
Type in all cases: cell-based
[1] = tested on: Klebsiella pneumniae 3020 Y60; assay: antibacterial activity (MIC), resistant strain; conditions: medium pH 7.2; strain "producing gentamicin" (footnote 4); unit assumed
Experimental: (§1) Furthermore in the following Table 3, the antibacterial activity (MIC) of the compounds are set forth. The measurement was carried out according to the Japanese Antibiotic Medicament Standard using a medium having a pH of 7.2. Numbers of the compounds in Table 3 correspond to those in Tables 1 and 2.

[2] = tested on: Escherichia coli 57R/W677; assay: antibacterial activity (MIC), resistant strain; conditions: medium pH 7.2; strain "producing gentamicin" (footnote 4); unit assumed
Experimental: as §1

[3] = tested on: Escherichia coli R19 KY-8348; assay: antibacterial activity (MIC), resistant strain; conditions: medium pH 7.2; strain producing gentamicin acetyltransferase; unit assumed
Experimental: as §1

Providencia sp. 164 = assay: antibacterial activity (MIC), resistant strain; conditions: medium pH 7.2; strain producing gentamicin acetyltransferase (footnote 5); unit assumed
Experimental: as §1

[4] = tested on: Escherichia coli R18 KY-8321; assay: antibacterial activity (MIC), resistant strain; conditions: medium pH 7.2; strain producing gentamicin nucleotidyltransferase and neomycin phosphotransferase II; unit assumed
Experimental: as §1

[5] = tested on: Escherichia coli R17 Z-343; assay: antibacterial activity (MIC), resistant strain; conditions: medium pH 7.2; strain "producing kanamycin" (footnote 1); unit assumed
Experimental: as §1

[6] = tested on: Pseudomonas aeruginosa R9 KY8516; assay: antibacterial activity (MIC), resistant strain; conditions: medium pH 7.2; strain "producing kanamycin" (footnote 1); unit assumed
Experimental: as §1

[7] = tested on: Pseudomonas aeruginosa R4 KY8511; assay: antibacterial activity (MIC), resistant strain; conditions: medium pH 7.2; strain producing gentamicin acetyltransferase; unit assumed
Experimental: as §1

Escherichia coli 3100 = assay: antibacterial activity (MIC); conditions: medium pH 7.2, Japanese Antibiotic Medicament Standard; unit assumed
Experimental: as §1

Providencia sp. KY3950 = assay: antibacterial activity (MIC); conditions: medium pH 7.2, Japanese Antibiotic Medicament Standard; unit assumed
Experimental: as §1

[8] = tested on: Pseudomonas aeruginosa BMH#10; assay: antibacterial activity (MIC); conditions: medium pH 7.2, Japanese Antibiotic Medicament Standard; unit assumed
Experimental: as §1

Escherichia coli NIHJ-2 = assay: antibacterial activity (MIC); conditions: medium pH 7.2, Japanese Antibiotic Medicament Standard; unit assumed
Experimental: as §1

[9] = tested on: Bacillus subtilis ATCC 6633; assay: antibacterial activity (MIC); conditions: medium pH 7.2, Japanese Antibiotic Medicament Standard; unit assumed
Experimental: as §1

[10] = tested on: Klebsiella pneumoniae #8045; assay: antibacterial activity (MIC); conditions: medium pH 7.2, Japanese Antibiotic Medicament Standard; unit assumed
Experimental: as §1

[11] = tested on: Shigella sonnei ATCC 9290; assay: antibacterial activity (MIC); conditions: medium pH 7.2, Japanese Antibiotic Medicament Standard; unit assumed
Experimental: as §1

[12] = tested on: Staphylococcus aureus Smith; assay: antibacterial activity (MIC); conditions: medium pH 7.2, Japanese Antibiotic Medicament Standard; unit assumed
Experimental: as §1

[13] = tested on: Staphylococcus aureus 209-p; assay: antibacterial activity (MIC); conditions: medium pH 7.2, Japanese Antibiotic Medicament Standard; unit assumed
Experimental: as §1

Row | Compound | antibacterial activity (MIC) [1] | antibacterial activity (MIC) [2] | antibacterial activity (MIC) [3] | antibacterial activity (MIC) (Providencia sp. 164) | antibacterial activity (MIC) [4] | antibacterial activity (MIC) [5] | antibacterial activity (MIC) [6] | antibacterial activity (MIC) [7] | antibacterial activity (MIC) (Escherichia coli 3100) | antibacterial activity (MIC) (Providencia sp. KY3950) | antibacterial activity (MIC) [8] | antibacterial activity (MIC) (Escherichia coli NIHJ-2) | antibacterial activity (MIC) [9] | antibacterial activity (MIC) [10] | antibacterial activity (MIC) [11] | antibacterial activity (MIC) [12] | antibacterial activity (MIC) [13]
1 | COC1C(O)C(N)C(OC2OC(C(C)N)CCC2NCCN)C(O)C1N(C)C[C@@H](O)CCN (stereo partly drawn) [Compound 7, 4-N-[(S)-4-amino-2-hydroxybutyl]-2'-N-(2-aminoethyl)fortimicin B] | 6.25 µg/mL | 3.12 µg/mL | 0.78 µg/mL | 12.5 µg/mL | 3.12 µg/mL | 0.78 µg/mL | 6.25 µg/mL | 12.5 µg/mL | 3.12 µg/mL | 6.25 µg/mL | 0.78 µg/mL | 3.12 µg/mL | 0.4 µg/mL | 0.78 µg/mL | 3.12 µg/mL | 1.56 µg/mL | 0.78 µg/mL
2 | COC1C(O)C(N)C(OC2OC(C(C)N)CCC2NC(=O)[C@@H](O)CCN)C(O)C1N(C)C[C@@H](O)CCN (stereo partly drawn) [Compound 8, 4-N-[(S)-4-amino-2-hydroxybutyl]-2'-N-[(S)-4-amino-2-hydroxybutyryl]fortimicin B] | 12.5 µg/mL | 3.12 µg/mL | 3.12 µg/mL | 6.25 µg/mL | 6.25 µg/mL | 0.78 µg/mL | 50 µg/mL | 100 µg/mL | 3.12 µg/mL | 6.25 µg/mL | 0.78 µg/mL | 1.56 µg/mL | 0.78 µg/mL | 1.56 µg/mL | 6.25 µg/mL | 1.56 µg/mL | 0.78 µg/mL
3 | COC1C(O)C(N)C(OC2OC(C(C)N)CCC2NC[C@@H](O)CCN)C(O)C1N(C)C[C@@H](O)CCN (stereo partly drawn) [Compound 9, 4,2'-di-N-[(S)-4-amino-2-hydroxybutyl]fortimicin B] | 3.12 µg/mL | 3.12 µg/mL | 6.25 µg/mL | 3.12 µg/mL | 1.56 µg/mL | 1.56 µg/mL | 3.12 µg/mL | 100 µg/mL | 3.12 µg/mL | 1.56 µg/mL | 0.78 µg/mL | 1.56 µg/mL | 0.4 µg/mL | 1.56 µg/mL | 3.12 µg/mL | 0.78 µg/mL | 0.78 µg/mL
4 | COC1C(O)C(N)C(OC2OC(C(C)N)CCC2NCCO)C(O)C1N(C)C[C@@H](O)CCN (stereo partly drawn) [Compound 10, 4-N-[(S)-4-amino-2-hydroxybutyl]-2'-N-(2-hydroxyethyl)fortimicin B] | 100 µg/mL | 3.12 µg/mL | 100 µg/mL | 50 µg/mL | 1.56 µg/mL | 3.12 µg/mL | 50 µg/mL | > 100 µg/mL | 3.12 µg/mL | 12.5 µg/mL | 1.56 µg/mL | 6.25 µg/mL | 0.78 µg/mL | 6.25 µg/mL | 6.25 µg/mL | 0.78 µg/mL | 1.56 µg/mL
5 | NC[C@H]1O[C@H](O[C@H]2[C@H](O)[C@@H](O[C@H]3O[C@H](CO)[C@@H](O)[C@H](N)[C@H]3O)[C@H](N)C[C@@H]2N)[C@H](O)[C@@H](O)[C@@H]1O [KA, kanamycin A, reference compound] | > 100 µg/mL | 100 µg/mL | > 100 µg/mL | > 100 µg/mL | > 100 µg/mL | 12.5 µg/mL | > 100 µg/mL | > 100 µg/mL | 3.12 µg/mL | 12.5 µg/mL | 25 µg/mL | 1.56 µg/mL | 0.4 µg/mL | 0.78 µg/mL | 3.12 µg/mL | 0.4 µg/mL | 0.4 µg/mL

From patent US4226980A, “Novel derivatives of fortimicin B and process for preparing same” (Abbott Laboratories, priority 1978, dated 1980)
